Legend:
BRD4 BD1 = target: T1, BRD4 BD1 (Homo sapiens, UniProt O60885); assay: NanoBRET bromodomain assay, NanoLuc-BRD4-BD1 in HEK293 cells; assay type: binding
T1 construct: HEK293 cells were transfected using NanoLuc-BRD4-BD1 or NanoLuc-BRD4-BD2 fusion vectors
Procedure: Exemplary compounds of the disclosure are active against BRD4 BD2 and selective over BRD4 BD1. BRD4 is a representative example of the BET family, as the binding sites of all BET family members are structurally similar. […] IC50s and fold selectivity's are determined as described below and are represented in Table 1.
(§1) Plates were then incubated at 37° C.+5% CO2 incubator for 2 hours.
(§2) Fold Selectivity Calculated (IC50 BD1/IC50 BD2).

BRD4 BD2 = target: T2, BRD4 BD2 (Homo sapiens, UniProt O60885); assay: NanoBRET bromodomain assay, NanoLuc-BRD4-BD2 in HEK293 cells; assay type: binding; settings: for Fold Selectivity BRD4 BD1/BD2: IC50 BD1/IC50 BD2, qualitative if an IC50 is at the upper limit
T2 construct: HEK293 cells were transfected using NanoLuc-BRD4-BD1 or NanoLuc-BRD4-BD2 fusion vectors
Procedure: as §1, §2

SMILES | IC50 (BRD4 BD1) | IC50 (BRD4 BD2) | Fold Selectivity BRD4 BD1/BD2 (BRD4 BD2)
Cc1cc(-c2cc3c(-c4cc(=O)n(C)cc4-c4ccccc4C)cn(C)c(=O)c3[nH]2)cc(C)n1.Cl [Example 27, 2-(2,6-dimethylpyridin-4-yl)-6-methyl-4-(1-methyl-2-oxo-5-(o-tolyl)-1,2-dihydropyridin-4-yl)-1,6-dihydro-7H-pyrrolo[2,3-c]pyridin-7-one hydrochloride] | > 1000 nM | 10 to 50 nM | xxx (Fold >200 and ≤1000)
Cc1cc(-c2cc3c(-c4cc(=O)n(C5CC5)cc4-c4ccccc4)cn(C)c(=O)c3[nH]2)cc(C)n1.Cl [Example 28, 4-(1-cyclopropyl-2-oxo-5-phenyl-1,2-dihydropyridin-4-yl)-2-(2,6-dimethylpyridin-4-yl)-6-methyl-1,6-dihydro-7H-pyrrolo[2,3-c]pyridin-7-one hydrogen chloride] | > 1000 nM | < 10 nM | xxxx (Fold >1000)
Cc1cc(-c2cc3c(-c4cc(=O)n(C)cc4-c4ccc(C#N)cc4)cn(C)c(=O)c3[nH]2)cc(C)n1.Cl [Example 29, 4-(4-(2-(2,6-dimethylpyridin-4-yl)-6-methyl-7-oxo-6,7-dihydro-1H-pyrrolo[2,3-c]pyridin-4-yl)-1-methyl-6-oxo-1,6-dihydropyridin-3-yl)benzonitrile hydrogen chloride] | > 1000 nM | 10 to 50 nM | xxx (Fold >200 and ≤1000)
Cc1cc(-c2cc3c(-c4cc(=O)n(C)cc4-c4ccc(F)cc4)cn(C)c(=O)c3[nH]2)cc(C)n1.Cl [Example 30, 2-(2,6-dimethylpyridin-4-yl)-4-(5-(4-fluorophenyl)-1-methyl-2-oxo-1,2-dihydropyridin-4-yl)-6-methyl-1,6-dihydro-7H-pyrrolo[2,3-c]pyridin-7-one hydrochloride] | > 1000 nM | < 10 nM | xxxx (Fold >1000)
COc1ccc(-c2cn(C)c(=O)cc2-c2cn(C)c(=O)c3[nH]c(-c4cc(C)nc(C)c4)cc23)cc1.Cl [Example 31, 2-(2,6-dimethylpyridin-4-yl)-4-(5-(4-methoxyphenyl)-1-methyl-2-ox0-1,2-dihydropyridin-4-yl)-6-methyl-1,6-dihydro-7H-pyrrolo[2,3-c]pyridin-7-one hydrogen chloride] | 500 to 1000 nM | < 10 nM | xxx (Fold >200 and ≤1000)
Cc1cc(-c2cc3c(-c4cc(=O)n(C)cc4-c4ccccc4Cl)cn(C)c(=O)c3[nH]2)cc(C)n1.Cl [Example 32, 4-(5-(2-chlorophenyl)-1-methyl-2-oxo-1,2-dihydropyridin-4-yl)-2-(2,6-dimethylpyridin-4-yl)-6-methyl-1,6-dihydro-7H-pyrrolo[2,3-c]pyridin-7-one hydrogen chloride] | > 1000 nM | 10 to 50 nM | xxx (Fold >200 and ≤1000)
Cc1cc(-c2cc3c(-c4cc(=O)n(C)cc4-c4ccc5c(c4)COC5)cn(C)c(=O)c3[nH]2)cc(C)n1.Cl [Example 33, 4-(5-(1,3-dihydroisobenzofuran-5-yl)-1-methyl-2-oxo-1,2-dihydropyridin-4-yl)-2-(2,6-dimethylpyridin-4-yl)-6-methyl-1,6-dihydro-7H-pyrrolo[2,3-c]pyridin-7-one hydrochloride] | > 1000 nM | < 10 nM | xxxx (Fold >1000)
Cn1cc(-c2ccccc2)c(-c2cn(C)c(=O)c3[nH]c(-c4cnn(C(F)(F)F)c4)cc23)cc1=O [Example 34, 6-methyl-4-(1-methyl-2-oxo-5-phenyl-1,2-dihydropyridin-4-yl)-2-(1-(trifluoromethyl)-1H-pyrazol-4-yl)-1,6-dihydro-7H-pyrrolo[2,3-c]pyridin-7-one] | > 1000 nM | < 10 nM | xxxx (Fold >1000)
Cn1cc(-c2cccc(C3COC3)c2)c(-c2cn(C)c(=O)c3[nH]c(-c4ccc(F)cc4F)cc23)cc1=O [Example 35, 2-(2,4-difluorophenyl)-6-methyl-4-(1-methyl-5-(3-(oxetan-3-yl)phenyl)-2-oxo-1,2-dihydropyridin-4-yl)-1,6-dihydro-7H-pyrrolo[2,3-c]pyridin-7-one] | > 1000 nM | 10 to 50 nM | xxx (Fold >200 and ≤1000)
Cn1cc(-c2cccc(CN3CCOCC3)c2)c(-c2cn(C)c(=O)c3[nH]c(-c4ccc(F)cc4F)cc23)cc1=O [Example 36, 2-(2,4-difluorophenyl)-6-methyl-4-(1-methyl-5-(3-(morpholinomethyl)phenyl)-2-oxo-1,2-dihydropyridin-4-yl)-1,6-dihydro-7H-pyrrolo[2,3-c]pyridin-7-one] | > 1000 nM | 10 to 50 nM | xxx (Fold >200 and ≤1000)
Cn1cc(-c2cccnc2)c(-c2cn(C)c(=O)c3[nH]c(-c4ccc(F)cc4F)cc23)cc1=O [Example 37, 2-(2,4-difluorophenyl)-6-methyl-4-(1-methyl-6-oxo-1,6-dihydro-[3,3′-bipyridin]-4-yl)-1,6-dihydro-7H-pyrrolo[2,3-c]pyridin-7-one] | > 1000 nM | 10 to 50 nM | xxx (Fold >200 and ≤1000)
Cc1cccc(C)c1Oc1cn(C)c(=O)cc1-c1cn(C)c(=O)c2[nH]c(-c3ccccn3)cc12 [Example 38, 4-(5-(2,6-dimethylphenoxy)-1-methyl-2-oxo-1,2-dihydropyridin-4-yl)-6-methyl-2-(pyridin-2-yl)-1,6-dihydro-7H-pyrrolo[2,3-c]pyridin-7-one] | > 1000 nM | 10 to 50 nM | xxx (Fold >200 and ≤1000)
Cc1cccc(C)c1Oc1cn(C2CC2)c(=O)cc1-c1cn(C)c(=O)c2[nH]c(-c3ccc(F)cc3F)cc12 [Example 39, 4-(1-cyclopropyl-5-(2,6-dimethylphenoxy)-2-oxo-1,2-dihydropyridin-4-yl)-2-(2,4-difluorophenyl)-6-methyl-1,6-dihydro-7H-pyrrolo[2,3-c]pyridin-7-one] | > 1000 nM | < 10 nM | xxxx (Fold >1000)
COc1cccc(-c2cc3c(-c4cc(=O)n(C5CC5)cc4Oc4c(C)cccc4C)cn(C)c(=O)c3[nH]2)c1F [Example 40, 4-(1-cyclopropyl-5-(2,6-dimethylphenoxy)-2-oxo-1,2-dihydropyridin-4-yl)-2-(2-fluoro-3-methoxyphenyl)-6-methyl-1,6-dihydro-7H-pyrrolo[2,3-c]pyridin-7-one] | > 1000 nM | 10 to 50 nM | xxx (Fold >200 and ≤1000)
CCCn1cc(-c2cc3c(-c4cc(=O)n(C)cc4Oc4c(C)cccc4C)cn(C)c(=O)c3[nH]2)cn1 [Example 41, 4-(5-(2,6-dimethylphenoxy)-1-methyl-2-oxo-1,2-dihydropyridin-4-yl)-6-methyl-2-(1-propyl-1H-pyrazol-4-yl)-1,6-dihydro-7H-pyrrolo[2,3-c]pyridin-7-one] | > 1000 nM | < 10 nM | xxxx (Fold >1000)
Cn1cc(-c2ccccc2)c(-c2cn(C)c(=O)c3[nH]c(-c4ccccc4F)cc23)cc1=O [Example 42, 2-(2-fluorophenyl)-6-methyl-4-(1-methyl-2-oxo-5-phenyl-1,2-dihydropyridin-4-yl)-1,6-dihydro-7H-pyrrolo[2,3-c]pyridin-7-one] | > 1000 nM | < 10 nM | xxxx (Fold >1000)
Cn1cc(-c2ccccc2)c(-c2cn(C)c(=O)c3[nH]c(-c4ccc(F)cc4F)cc23)cc1=O [Example 43, 2-(2,4-difluorophenyl)-6-methyl-4-(1-methyl-2-oxo-5-phenyl-1,2-dihydropyridin-4-yl)-1,6-dihydro-7H-pyrrolo[2,3-c]pyridin-7-one] | > 1000 nM | < 10 nM | xxxx (Fold >1000)
Cn1cc(-c2ccccc2)c(-c2cn(C)c(=O)c3[nH]c(-c4ccc(C5COC5)cc4)cc23)cc1=O [Example 44, 6-methyl-4-(1-methyl-2-oxo-5-phenyl-1,2-dihydropyridin-4-yl)-2-(4-(oxetan-3-yl)phenyl)-1,6-dihydro-7H-pyrrolo[2,3-c]pyridin-7-one] | > 1000 nM | < 10 nM | xxxx (Fold >1000)
Cn1cc(-c2ccccc2)c(-c2cn(C)c(=O)c3[nH]c(-c4ccc(S(C)(=O)=O)cc4)cc23)cc1=O [Example 45, 6-methyl-4-(1-methyl-2-oxo-5-phenyl-1,2-dihydropyridin-4-yl)-2-(4-(methylsulfonyl)phenyl)-1,6-dihydro-7H-pyrrolo[2,3-c]pyridin-7-one] | > 1000 nM | < 10 nM | xxxx (Fold >1000)
COCc1ccc(-c2cc3c(-c4cc(=O)n(C)cc4-c4ccccc4)cn(C)c(=O)c3[nH]2)cc1 [Example 46, 2-(4-(methoxymethyl)phenyl)-6-methyl-4-(1-methyl-2-oxo-5-phenyl-1,2-dihydropyridin-4-yl)-1,6-dihydro-7H-pyrrolo[2,3-c]pyridin-7-one] | > 1000 nM | < 10 nM | xxxx (Fold >1000)
Cn1cc(-c2cc(=O)n(C3CC3)cc2-c2ccccc2)c2cc(-c3ccccc3F)[nH]c2c1=O [Example 47, 4-(1-cyclopropyl-2-oxo-5-phenyl-1,2-dihydropyridin-4-yl)-2-(2-fluorophenyl)-6-methyl-1,6-dihydro-7H-pyrrolo[2,3-c]pyridin-7-one] | > 1000 nM | < 10 nM | xxxx (Fold >1000)
Cn1cc(-c2cc(=O)n(C3CC3)cc2-c2ccccc2)c2cc(-c3cccc(F)c3F)[nH]c2c1=O [Example 48, 4-(1-cyclopropyl-2-oxo-5-phenyl-1,2-dihydropyridin-4-yl)-2-(2,3-difluorophenyl)-6-methyl-1,6-dihydro-7H-pyrrolo[2,3-c]pyridin-7-one] | > 1000 nM | < 10 nM | xxxx (Fold >1000)
